Values quoted from earlier work as cited in US20170273935A1, “CINEOLE-CONTAINING COMPOSITION FOR NASAL APPLICATION” (Maria Clementine Martin Klosterfrau Vertriebsgesellschaft …, priority 2014, published 2017).

solubility in water: insoluble in water
Structure (SMILES): CC12CCC(CC1)C(C)(C)O2 [1,8-cineole, 1,3,3-trimethyl-2-oxabicyclo[2.2.2]octane]
